Data set [1] deals with MDA-MB-231 human breast cancer cells. The experiment in a line: MTS cell viability assay (MDA-MB-231). Format: cell-based. The conditions noted are these: folate-receptor-positive MDA-MB-231 cells. A general note: Formazan colour is commonly taken as a measure of viable cells.
In a further data set the test system is 4T1. The experiment in a line: MTS cell viability assay (4T1). Particulars: Mus musculus, 4T1 cells. Format: cell-based.
The conditions of data set [2]: in vivo; cited from earlier work.

SMILES strings stand for the structures. pIC50: −log10 of the molar value.

Consider 5 compounds from patent US11884687B2, “Boronated multifunctional targeting drug conjugates, their uses and methods for their preparation” (Hovione Scientia Limited, priority 2017, dated 2024).

The term pIC50 denotes the IC50 on a negative log10 scale, so that one unit is a factor of ten. Lower therefore signals a high IC50. For orientation: LD50 means the dose expected to kill half of the subjects tested.

In the case of `COCCOCCOCCOc1ccc2c(c1)C(C)=[N+]1c3ccc(C(=O)NCCN=[N+]=[N-])cc3O[B-]1([C@H](CC(C)C)NC(=O)[C@@H](Cc1ccccc1)NC(=O)c1cnccn1)O2` (stereo partly shown) [B-complex 7], the pIC50 in data set [1] (Homo sapiens) is below 7.00; with 4T1 it was 6.17.
`COCCOCCOCCOc1ccc2c(c1)C(C)=[N+]1c3ccc(C(=O)NCCn4nnc5c4CC[C@H]4[C@@H](CC5)[C@H]4COC(=O)NCCNC(=O)CCC(NC(=O)c4ccc(NCc5cnc6nc(N)[nH]c(=O)c6n5)cc4)C(=O)O)cc3O[B-]1([C@H](CC(C)C)NC(=O)[C@@H](Cc1ccccc1)NC(=O)c1cnccn1)O2` (stereo partly shown) [B-complex 8] had a pIC50 in data set [1] of 7.17.
Regarding `CC1=[N+]2c3ccc(C(=O)NCCOCCOCCOCCN=[N+]=[N-])cc3O[B-]2([C@H](CC(C)C)NC(=O)[C@@H](Cc2ccccc2)NC(=O)c2cnccn2)Oc2ccc(OCCOCCOCCOCCN=[N+]=[N-])cc21` (stereo partly shown) [B-complex 9], the pIC50 in data set [1] (Homo sapiens) is below 7.00; in the data set on 4T1, 5.14.
`CC1=[N+]2c3ccc(C(=O)NCCOCCOCCOCCn4nnc5c4CCC4C(CC5)[C@@H]4COC(=O)NCCNC(=O)CC[C@H](NC(=O)c4ccc(NCc5cnc6nc(N)[nH]c(=O)c6n5)cc4)C(=O)O)cc3O[B-]2([C@H](CC(C)C)NC(=O)[C@@H](Cc2ccccc2)NC(=O)c2cnccn2)Oc2ccc(OCCOCCOCCOCCn3nnc4c3CC[C@H]3[C@@H](CC4)[C@H]3COC(=O)NCCNC(=O)CC[C@H](NC(=O)c3ccc(NCc4cnc5nc(N)[nH]c(=O)c5n4)cc3)C(=O)O)cc21` (stereo partly shown) [B-complex 10] had a pIC50 in data set [1] of 7.21.
On to `[Cl-].[Na+]` [table salt], for which, in data set [2], the LD50 was 3000 mg/kg.
